Assay: Encapsulation of molecule in the beads (determination by HPLC)
Type: physicochemical
Conditions: α-cyclodextrin/soya oil beads
Experimental: The procedure is carried out as described in Example 1, but using, as molecules of interest, molecules that are active in therapeutics or that can be used in cosmetics, such as pigments or dyes, vitamin E acetate, benzophenone or isotretinoin.
In addition, it was shown that 30% of vitamin E acetate is encapsulated (determination by HPLC).

## CC(=O)Oc1c(C)c(C)c2c(c1C)CCC(C)(CCC[C@H](C)CCC[C@H](C)CCCC(C)C)O2 (stereo partly shown) [vitamin E acetate]
  fraction of molecule encapsulated in the beads: 30%
